Source: patent publication US12440466B2, “Fatty acid derivatives for treating non-alcoholic steatohepatitis” (BASF AS, priority 2017, dated 2025)
Marks after values point to notes of the source that are not given here.

Assays:
CDAA/high-fat fed mice = assay: Hepatic fibrosis by Sirius Red (SR) morphometry, CDAA/high-fat diet mouse model; assay type: in vivo
Procedure: In Biological Examples 1-7, studies were performed in male C56BL/6J mice (9 weeks old). Mice were fed either choline-sufficient (CS) or choline deficient high-fat diets (31% total calories; “CDAA/high-fat”). The NASH inducing diet was instigated 6 weeks prior to the commencement of treatment in order to design the study as a treatment/reversal set-up rather than prophylaxis.
In Biological Examples 1-5, mice were divided into 6 experimental groups (n=9 per group) and fed either CS or CDAA/high-fat diets. […] Hepatic fibrosis was assessed by both measurement of hydroxyproline (HYP) content and Sirius Red (SR) morphometry. Fibrosis, inflammation and metabolism related transcripts levels were measured by quantitative real-time polymerase chain reaction (qPCR).
In order to more accurately quantify the amount location and functional relevance of the hepatic fibrosis, Sirius Red (SR) morphometry was performed. In contrast to examples 1 and 2 where biochemical assessment of hydroxyproline (HYP) content measuring collagen in the large vessels was used, SR morphometry quantifies the more functionally relevant sinusoidal collagen deposits. 10 areas per slide were measured using 100× magnification.

TIMP-1a mRNA = assay: Hepatic TIMP-1a mRNA expression by qPCR, CDAA/high-fat diet mouse model; assay type: in vivo; conditions: CDAA/high-fat fed mice; Compound A 0.3 mmol/kg bw/day oral; GLP-1a 0.4 mg/kg once weekly i.p.; alone or combined
Procedure: Mice were fed either choline-sufficient (CS) or choline deficient high-fat diets (31% total calories; “CDAA/high-fat”). The NASH inducing diet was instigated 6 weeks prior to the commencement of treatment in order to design the study as a treatment/reversal set-up rather than prophylaxis.
Studies were performed in male C56BL/6J mice (9 weeks old). Mice were divided into 6 experimental groups (n=9 per group) containing either CS or CDAA/high-fat diets, as described above. The NASH inducing CDAA/high fat diet was instigated 6 weeks prior to the commencement of treatment in order to assess treatment/reversal rather than prophylaxis. […] Compound A was administered orally as admix to the high-fat diet whilst GLP-1 agonist was delivered via intraperitoneal injection (i.p.). Fibrosis, inflammation and metabolism related transcripts levels were measured by quantitative real-time polymerase chain reaction (qPCR) in isolated liver tissue.

STAM (model) mice = assay: Fibrosis area by Sirius Red staining, STAM model; assay type: in vivo, mouse; conditions: Sirius Red positive area, 6 weeks treatment, Compound A 37 mg/kg/day oral gavage
Description: In Biological Example 8, pathogen-free 15-day-pregnant C57BL/6 mice were obtained from Charles River Laboratories in Japan Inc. (Kanagawa, Japan). NASH was established in male mice by a single subcutaneous injection of streptozotocin (STZ) (Sigma, USA) after birth and feeding with a high fat diet (HFD; CLEA) Japan, Japan) ad libitum after 4 weeks of age (day 28±2). Mice were randomised into 3 groups of 8 mice at 6 weeks of age the day before the start of treatment: vehicle (saline), Compound A and telmisartan (positive control). Treatment with Compound A at a dose of 37 mg/kg bw per day via oral gavage in conjunction with a high-fat diet was given for 6 weeks before sacrifice. NAFLD activity score (NAS) was calculated according to standardised criteria and fibrosis area was assessed via Sirius Red staining.

ob/ob AMLN mice = assay: Oral glucose tolerance test (OGTT) and glycemic control in ob/ob AMLN mice; assay type: in vivo, mouse; conditions: after 3 weeks, Compound A 112 mg/kg, pioglitazone 30 mg/kg
Procedure: Obese diet-induced B6.V-Lepob/Jrj mice (ob/ob) are consistently fibrosis (liver) prone when cholesterol (2%), 40% fat (containing 18% trans-fatty acids) and 20% fructose are added to a high-caloric diet (i.e., AMLN high-fat diet). ob/ob mice on AMLN diet (termed ‘ob/ob AMLN mice’) develop steatohepatitis and fibrosis within a shorter timeframe ([…]) compared with wild-type C57BL/6 mice (AMLN mice) fed the same diet. ob/ob AMLN mice provide an obese diet-induced model of NASH that also allows the study of effects on glycemic control. Development of NASH in the ob/ob AMLN model is confirmed by biopsy.
In Biological Examples 10-12, 15, and 19, studies were performed in male ob/ob mice (5 weeks old) fed an AMLN high-fat diet for 15 weeks, then randomized into 3 groups (n=10 per group) to receive either 112 mg/kg bw per day of Compound A via diet, 30 mg/kg bw per day pioglitazone via diet or no treatment (vehicle) for a further 4 weeks. An oral glucose tolerance test (OGTT) was performed at week 3. Hepatic fibrosis was assessed via measurements of hepatic fibrogenic/fibrolytic gene expression by RNA sequencing at 4 weeks.
After 3 weeks of administration of Compound A (112 mg/kg), pioglitazone, or vehicle control, an oral glucose tolerance test (OGTT) was performed in ob/ob AMLN mice.

## CC/C=C\C/C=C\C/C=C\C/C=C\C/C=C\CCCCOC(CC)C(=O)O (stereo not drawn) [Compound A, 2-((5Z,8Z,11Z,14Z,17Z)-icosa-5,8,11,14,17-pentaenyloxy)butanoic acid]
CDAA/high-fat fed mice; HD 0.3 mmol/kg bw per day
  Fibrosis area (mean %): 1.56* %
CDAA/high-fat fed mice; LD 0.15 mmol/kg bw/day
  Fibrosis area (mean %): 0.76*** %
TIMP-1a mRNA
  TIMP-1a (relative mRNA expression): 2***
STAM (model) mice
  Fibrosis area (%): 0.79%
ob/ob AMLN mice
  fasting plasma glucose levels: significant reductions
  glucose excursion after glucose load (AUC 0-240 mins), OGTT: significantly reduced
